# Reference: publication PMC12557367, ““Precision on Two Wheels”–Structural Refinement of ^64Cu- and ^68Ga-Labeled Bicyclic Peptides Targeting Nectin‑4 for Improved Tumor Imaging: From Preclinical Development to First-in-Human Application” (Journal of Medicinal Chemistry, 2025)
# Where two headings read alike, the source gives them in different places. Numbered stars: 1 amine (or outer) side, 2 acyl side, 3 side chain; on linkers, the order of the positions; unused ones are H or OH. Bridge positions count the residues as written; N and C are the ends. Square brackets hold non-standard residues; d marks the D form. Peptide text beside a SMILES is read from it. * marks the point of attachment. TATA = O=C(CC[*:1])N1CN(C(=O)CC[*:2])CN(C(=O)CC[*:3])C1; X1 = O=C(O)CN1CCN(CC(=O)O)CCN([C@H](CCC(=O)*)C(=O)O)CC1; 1Nal = N[C@@H](Cc1cccc2ccccc12)C(=O)O; Hyp = O=C(O)[C@@H]1C[C@@H](O)CN1; hArg = N=C(N)NCCCC[C@H](N)C(=O)O; hSer = N[C@@H](CCO)C(=O)O; Nle = CCCC[C@H](N)C(=O)O
# Tests used:
# [1] = target: T1, recombinant human nectin-4 (Homo sapiens, UniProt Q96NY8); assay: FA-based competitive binding assay with probe 1a; conditions: for Hill coefficient n: competitive binding curve, variable slope; for fold lower binding affinity compared to 1e: FA K d ratio
# T1 construct: close to the value determined for the complete extracellular domain of nectin-4 (0.94 nM); purchased R&D Systems 2659-N4
# T1 sequence (Q96NY8 32-349 limits assumed): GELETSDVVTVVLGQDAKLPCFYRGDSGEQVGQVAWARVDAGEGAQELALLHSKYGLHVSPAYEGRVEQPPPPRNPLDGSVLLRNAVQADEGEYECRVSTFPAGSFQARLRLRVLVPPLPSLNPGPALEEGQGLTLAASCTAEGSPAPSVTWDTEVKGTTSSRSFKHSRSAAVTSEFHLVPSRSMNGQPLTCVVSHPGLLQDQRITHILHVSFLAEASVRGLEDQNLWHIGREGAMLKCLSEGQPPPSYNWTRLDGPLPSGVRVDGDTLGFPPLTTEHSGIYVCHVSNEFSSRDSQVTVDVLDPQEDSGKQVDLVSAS
# Protocol: For the competitive binding assay, a constant concentration of probe 1a (1 nM) and of nectin-4 (20 nM) was used, and the concentration of the competitors was varied over at least 3 orders of magnitude. […] Analysis of the curves by nonlinear regression according to dose–response inhibition with variable slope, as implemented in GraphPad Prism (see Experimental section), provided the IC50 value for displacing the probe from nectin-4.
# All measurements were conducted at 37 °C over 1200 s (interval of 37 s) using a Cytation 5 multimode microplate reader (BioTek Instruments, Software Gen 5) and black 96-well microplates (BRANDplates with F-bottom wells). Experiments were conducted at an excitation wavelength of 540 nm and an emission wavelength of 620 nm. The FA (r) was calculated by Gen 5 software from the measured parallel and perpendicular fluorescence intensities (I ∥ and I ⊥, respectively) according to eq using a G factor of 0.87 (preset value). r=I∥−G×I⊥/I∥+2G×I⊥ 1
# All further data analyses were conducted with GraphPad Prism (version 10.4.1, GraphPad Software, San Diego, CA, USA). The assay mixture (100 μL) contained an aqueous solution (99 μL) and DMSO (1%, v/v, 1 μL).
# For the competitive binding assay, fixed concentrations of probe 1a (1 nM) and recombinant human nectin-4 (20 nM) and 10 concentrations of nonlabeled peptide (e.g., […] prepared as serial 1:1 dilution) were used (two separate experiments, each performed in duplicate). The corresponding stock solutions of 1a (2.5 nM) and nectin-4 (50 nM) were prepared in HEPES buffer, while the stock solutions of the nonlabeled peptides were prepared in 5% DMSO/HEPES buffer. nectin-4 (40 μL) and 1a (40 μL) were added to the wells, and the competition was started by the addition of the nonlabeled peptides (20 μL). The FA values were averaged over the time period of 1200 s, and plots of FA = f([peptide]) were analyzed by nonlinear regression according to the model “[inhibitor] vs. response – Variable slope (four parameters)” as implemented in GraphPad Prism. […] Therefore, the lower FA plateau was constrained to the FA value of probe 1a in the absence of nectin-4 and the competitor, which was recorded in each experiment.
# [2] = target: T2, immobilized human nectin-4 (Homo sapiens, UniProt Q96NY8); assay: SPR analysis of binding kinetics; conditions: for kon / koff: ±SEM; for kon: read-out: k on (SPR, *10^6 M^–1 s^–1); for koff: read-out: k off (SPR, *10^–3 s^–1)
# T2 construct: close to the value determined for the complete extracellular domain of nectin-4 (0.94 nM); purchased R&D Systems 2659-N4
# T2 sequence (Q96NY8 32-349 limits assumed): T1 sequence (Q96NY8 32-349 limits assumed)
# Protocol: For this purpose, recombinant human nectin-4 was covalently immobilized on a CM5 sensor chip by EDC/NHS coupling. For analyses, the buffer composition (HBS-P+, pH 7.4) was similar to that of the FA assay; however, DMSO was completely omitted (1% DMSO for the FA assay).
# The SPR analyses were carried out on a Biacore T200 (GE Healthcare, Chicago, IL, USA) at 25 °C using CM5 sensor chips (Cytiva) and HBS-P+ as running buffer (Cytiva) at a flow of 30 μL/min unless otherwise specified and a data collection rate of 10 Hz. All flow cells (FC) were normalized, and functionalization was performed using an amine coupling Kit (Cytiva). […] Binding analyses were performed by a single-cycle kinetic on both FC. Two start-up cycles were performed at the beginning of each experimental set, comprising the injection of bicyclic peptide (50 nM) and analysis on both FC, followed by regeneration. Binding analysis for the bicyclic peptides was performed by consecutive injection of five increasing concentrations (120 s contact time for each concentration), followed by 600 s dissociation time and analysis on both FC. The regeneration was performed by sequential injection of 10 mM NaOAc (pH 5.5) for 60 s, washing the needle using HBS-P+, injection of 10 mM NaOAc (pH 5.5) for 60 s, 600 s waiting, four injections of HBS-P+ (60 s), and a final 600 s waiting for stabilization. Blank runs using only buffer (HBS-P+) instead of the sample were carried out to obtain double-referenced chromatograms. Binding analyses were performed unless otherwise stated in a concentration range between 0.16–100 nM and 1.6–1000 nM (5-fold dilution series) and analyzed in triplicate. The data were analyzed using the Biacore Evaluation software 3.2.1. […] Data were fitted to a 1:1 binding model.
# [3] = test system: HT-1376-derived tumor xenograft model; assay: Small animal PET/CT imaging; parameters: species or system mice; conditions: mouse, in vivo
# Protocol: All animal experiments were performed following the protocols evaluated and approved by the Landesdirektion Sachsen, Referat 25 – Veterinärwesen, Lebensmittelüberwachung and Pharmazie (09105 Chemnitz, Germany, ethics approval number: 25-5131/562/52). HT-1376- and 5637-derived tumor xenograft models were established in NMRI nude mice (Rj: NMRI-Foxn1nu/nu, Charles River Laboratories, Sulzfeld, Germany) by subcutaneous injection of 5 × 10^6 cells in 100 μL of PBS containing 50% (v/v) Matrigel (Corning Life Sciences, Amsterdam, The Netherlands).
# When the tumor volume reached 200 mm^3, PET experiments with radiotracers were performed. Radiolabeling of the ligands was performed as described previously with an apparent molar activity of 25 MBq/nmol. The radioligand stock solution (pH 6.5 – 7.5) was diluted in 0.9% NaCl, and 200 μL containing ∼9 MBq ([…]) was injected per mouse intravenously into a lateral tail vein. For blocking of target-specific radioligand binding, 75 nmol of blocking substance (1d) was administered simultaneously with the radioligand. Coincidences were recorded continuously in a 2 h PET-scan starting with the injection. Additionally, a CT scan was performed for anatomical referencing and attenuation correction. PET/CT imaging, reconstruction, and tissue delineation were carried out as described previously.
Hill coefficient n [1],"kon ([2]; HBS-P+ pH 7.4, 25 °C)","koff ([2]; pH 7.4, HBS-P+ pH 7.4, 25 °C)",SMILES,also measured
2.37,,,"CSCC[C@@H]1NC(=O)[C@@H]2CSCCC(=O)N3CN(CN(C3)C(=O)CCSC[C@H](NC(C)=O)C(=O)N3CCC[C@H]3C(=O)N[C@@H](Cc3cccc4ccccc34)C(=O)N[C@H](CC(=O)O)C(=O)N2)C(=O)CCSC[C@@H](C(N)=O)NC(=O)[C@H](Cc2c[nH]c3ccccc23)NC(=O)[C@@H]2C[C@@H](O)CN2C(=O)[C@@H]2CCCN2C(=O)[C@H]([C@@H](C)O)NC(=O)[C@H](CO)NC(=O)[C@H](Cc2c[nH]c3ccccc23)NC(=O)[C@H](CC(=O)O)NC(=O)[C@H](CCCCNC(=N)N)NC1=O [1d, reference compound]",
1.57,1.69e+07 M⁻¹ s⁻¹,0.0765 s⁻¹,CSCC[C@@H]1NC(=O)[C@@H]2CSCCC(=O)N3CN(CN(C3)C(=O)CCSC[C@H](NC(=O)CC[C@H](C(=O)O)N3CCN(CC(=O)O)CCN(CC(=O)O)CC3)C(=O)N3CCC[C@H]3C(=O)N[C@@H](Cc3ccc4ccccc4c3)C(=O)N[C@H](CC(=O)O)C(=O)N2)C(=O)CCSC[C@@H](C(N)=O)NC(=O)[C@H](Cc2c[nH]c3ccccc23)NC(=O)[C@@H]2C[C@@H](O)CN2C(=O)[C@@H]2CCCN2C(=O)[C@H]([C@@H](C)O)NC(=O)[C@H](CO)NC(=O)[C@H](Cc2c[nH]c3ccccc23)NC(=O)[C@H](CC(=O)O)NC(=O)[C@H](CCCCNC(=N)N)NC1=O [compound 9],fold increase in k off vs 1e ([2]; SPR): 18 fold
,,,COCC[C@@H]1NC(=O)[C@@H]2CSCCC(=O)N3CN(CN(C3)C(=O)CCSC[C@H](NC(=O)CC[C@H](C(=O)O)N3CCN(CC(=O)O)CCN(CC(=O)O)CC3)C(=O)N3CCC[C@H]3C(=O)N[C@@H](Cc3cccc4ccccc34)C(=O)N[C@H](CC(=O)O)C(=O)N2)C(=O)CCSC[C@@H](C(N)=O)NC(=O)[C@H](Cc2c[nH]c3ccccc23)NC(=O)[C@@H]2C[C@@H](O)CN2C(=O)[C@@H]2CCCN2C(=O)[C@H]([C@@H](C)O)NC(=O)[C@H](CO)NC(=O)[C@H](Cc2c[nH]c3ccccc23)NC(=O)[C@H](CC(=O)O)NC(=O)[C@H](CCCCNC(=N)N)NC1=O [[^68Ga]Ga-4] [metal not drawn] (X1-CP[1Nal][dD]C[hSer](Me)[hArg]DWSTP[Hyp]WC-NH2; linker 1-5-15 via TATA),Percent fast [%] [3]: 78.47 ±3.76%; time of highest tumor uptake [3]: 8.5 min
1.18,8.76e+06 M⁻¹ s⁻¹,0.0115 s⁻¹,CSCC[C@@H]1NC(=O)[C@@H]2CSCCC(=O)N3CN(CN(C3)C(=O)CCSC[C@H](NC(=O)CN3CCN(CC(=O)O)CCN(CC(=O)O)CCN(CC(=O)O)CC3)C(=O)N3CCC[C@H]3C(=O)N[C@@H](Cc3cccc4ccccc34)C(=O)N[C@H](CC(=O)O)C(=O)N2)C(=O)CCSCC(C(N)=O)NC(=O)[C@H](Cc2c[nH]c3ccccc23)NC(=O)[C@@H]2C[C@@H](O)CN2C(=O)[C@@H]2CCCN2C(=O)[C@H]([C@@H](C)O)NC(=O)[C@H](CO)NC(=O)[C@H](Cc2c[nH]c3ccccc23)NC(=O)[C@H](CC(=O)O)NC(=O)[C@H](CCCCNC(=N)N)NC1=O (stereo partly shown) [1f],"fold lower binding affinity compared to 1e [1]: 10 fold; Kd ([2]; HBS-P+ pH 7.4, 25 °C, single-cycle kinetics, 1:1 model, read-out: K d (SPR)): 1.31 nM"
1.80,,,CCCC[C@@H]1NC(=O)[C@@H]2CSCCC(=O)N3CN(CN(C3)C(=O)CCSC[C@H](NC(C)=O)C(=O)N3CCC[C@H]3C(=O)N[C@@H](Cc3cccc4ccccc34)C(=O)N[C@H](CC(=O)O)C(=O)N2)C(=O)CCSC[C@@H](C(N)=O)NC(=O)[C@H](Cc2c[nH]c3ccccc23)NC(=O)[C@@H]2C[C@@H](O)CN2C(=O)[C@@H]2CCCN2C(=O)[C@H]([C@@H](C)O)NC(=O)[C@H](CO)NC(=O)[C@H](Cc2c[nH]c3ccccc23)NC(=O)[C@H](CC(=O)O)NC(=O)[C@H](CCCCNC(=N)N)NC1=O [3b] (Ac-CP[1Nal][dD]C[Nle][hArg]DWSTP[Hyp]WC-NH2; linker 1-5-15 via TATA),
,1.1e+06 M⁻¹ s⁻¹,0.0026 s⁻¹,"CSCC[C@@H]1NC(=O)[C@@H]2CSCCC(=O)N3CN(CN(C3)C(=O)CCSC[C@H](NC(=O)CC[C@H](C(=O)O)N3CCN(CC(=O)O)CCN(CC(=O)O)CC3)C(=O)N3CCC[C@H]3C(=O)N[C@@H](Cc3cccc4ccccc34)C(=O)N[C@H](CC(=O)O)C(=O)N2)C(=O)CCSC[C@@H](C(N)=O)NC(=O)[C@H](Cc2c[nH]c3ccccc23)NC(=O)[C@@H]2C[C@@H](O)CN2C(=O)[C@@H]2CCCN2C(=O)[C@H]([C@@H](C)O)NC(=O)[C@H](CO)NC(=O)[C@H](Cc2c[nH]c3ccccc23)NC(=O)[C@H](CC(=O)O)NC(=O)[C@H](CCCCNC(=N)N)NC1=O [natGa-1e, metal not drawn]",
,,,CSCC[C@@H]1NC(=O)[C@@H]2CSCCC(=O)N3CN(CN(C3)C(=O)CCSC[C@H](NC(=O)CC[C@H](C(=O)O)N3CCN(CC(=O)O)CCN(CC(=O)O)CC3)C(=O)N3CCC[C@H]3C(=O)N[C@@H](Cc3cccc4ccccc34)C(=O)N[C@H](CC(=O)O)C(=O)N2)C(=O)CCSC[C@@H](C(N)=O)NC(=O)[C@H](Cc2c[nH]c3ccccc23)NC(=O)[C@@H]2C[C@@H](O)CN2C(=O)[C@@H]2CCCN2C(=O)[C@H]([C@@H](C)O)NC(=O)[C@H](CO)NC(=O)[C@H](Cc2c[nH]c3ccccc23)NC(=O)[C@H](CC(=O)O)NC(=O)[C@H](CCCCNC(=N)N)NC1=O [[^68Ga]Ga-1e] [metal not drawn],Blood half life fast [3]: 1.51 ± 0.31 min; Blood half life slow [3]: 42.24 ± 4.20 min; Percent fast [%] [3]: 80.73 ±3.35%; body retention at 2 h p.i. [3]: 65%; time of highest tumor uptake [3]: 8.5 min
2.12,,,CSCC[C@@H]1NC(=O)[C@@H]2CSCCC(=O)N3CN(CN(C3)C(=O)CCSC[C@H](N)C(=O)N3CCC[C@H]3C(=O)N[C@@H](Cc3cccc4ccccc34)C(=O)N[C@H](CC(=O)O)C(=O)N2)C(=O)CCSC[C@@H](C(N)=O)NC(=O)[C@H](Cc2c[nH]c3ccccc23)NC(=O)[C@@H]2C[C@@H](O)CN2C(=O)[C@@H]2CCCN2C(=O)[C@H]([C@@H](C)O)NC(=O)[C@H](CO)NC(=O)[C@H](Cc2c[nH]c3ccccc23)NC(=O)[C@H](CC(=O)O)NC(=O)[C@H](CCCCNC(=N)N)NC1=O [1c],

SMILES,Hill coefficient n [1],"kon ([2]; HBS-P+ pH 7.4, 25 °C)","koff ([2]; pH 7.4, HBS-P+ pH 7.4, 25 °C)",also measured
CCSC[C@@H]1NC(=O)[C@@H]2CSCCC(=O)N3CN(CN(C3)C(=O)CCSC[C@H](NC(=O)CC[C@H](C(=O)O)N3CCN(CC(=O)O)CCN(CC(=O)O)CC3)C(=O)N3CCC[C@H]3C(=O)N[C@@H](Cc3cccc4ccccc34)C(=O)N[C@H](CC(=O)O)C(=O)N2)C(=O)CCSC[C@@H](C(N)=O)NC(=O)[C@H](Cc2c[nH]c3ccccc23)NC(=O)[C@@H]2C[C@@H](O)CN2C(=O)[C@@H]2CCCN2C(=O)[C@H]([C@@H](C)O)NC(=O)[C@H](CO)NC(=O)[C@H](Cc2c[nH]c3ccccc23)NC(=O)[C@H](CC(=O)O)NC(=O)[C@H](CCCCNC(=N)N)NC1=O [compound 7] (X1-CP[1Nal][dD]CC(Et)[hArg]DWSTP[Hyp]WC-NH2; linker 1-5-15 via TATA),1.93,4.61e+06 M⁻¹ s⁻¹,,"fold lower binding affinity compared to 1e [1]: approximately 10 fold; koff ([2]; HBS-P+ pH 7.4, 25 °C): 0.0268 s⁻¹"
